Test results from PubChem BioAssay AID1259407 (Chemical Carcinogenesis Research Information System (CCRIS), 2018).
Active and inactive are the calls of the source. No rule for the calls is given here.

Tested on: CCRIS mutagenicity, Ames/micronucleus/aberration tests
Experiment: CCRIS mutagenicity studies
[1] = Test System: AMES SALMONELLA TYPHIMURIUM, Strain/Indicator: TA97, Metabolic Activation: HAMSTER, LIVER, S-9, AROCLOR 1254 (10%), Method: PREINCUBATION
[2] = Test System: AMES SALMONELLA TYPHIMURIUM, Strain/Indicator: TA97, Metabolic Activation: NONE, Method: PREINCUBATION
[3] = Test System: AMES SALMONELLA TYPHIMURIUM, Strain/Indicator: TA97, Metabolic Activation: RAT, LIVER, S-9, AROCLOR 1254 (10%), Method: PREINCUBATION
[4] = Test System: AMES SALMONELLA TYPHIMURIUM, Strain/Indicator: TA98, Metabolic Activation: HAMSTER, LIVER, S-9, AROCLOR 1254 (10%), Method: PREINCUBATION
[5] = Test System: AMES SALMONELLA TYPHIMURIUM, Strain/Indicator: TA98, Metabolic Activation: NONE, Method: PREINCUBATION
[6] = Test System: AMES SALMONELLA TYPHIMURIUM, Strain/Indicator: TA98, Metabolic Activation: RAT, LIVER, S-9, AROCLOR 1254 (10%), Method: PREINCUBATION
[7] = Test System: AMES SALMONELLA TYPHIMURIUM, Strain/Indicator: TA100, Metabolic Activation: HAMSTER, LIVER, S-9, AROCLOR 1254 (10%), Method: PREINCUBATION
[8] = Test System: AMES SALMONELLA TYPHIMURIUM, Strain/Indicator: TA100, Metabolic Activation: NONE, Method: PREINCUBATION
[9] = Test System: AMES SALMONELLA TYPHIMURIUM, Strain/Indicator: TA100, Metabolic Activation: RAT, LIVER, S-9, AROCLOR 1254 (10%), Method: PREINCUBATION
[10] = Test System: AMES SALMONELLA TYPHIMURIUM, Strain/Indicator: TA1535, Metabolic Activation: HAMSTER, LIVER, S-9, AROCLOR 1254 (10%), Method: PREINCUBATION
[11] = Test System: AMES SALMONELLA TYPHIMURIUM, Strain/Indicator: TA1535, Metabolic Activation: NONE, Method: PREINCUBATION
[12] = Test System: AMES SALMONELLA TYPHIMURIUM, Strain/Indicator: TA1535, Metabolic Activation: RAT, LIVER, S-9, AROCLOR 1254 (10%), Method: PREINCUBATION

With `CCS(=O)CCSP(=O)(OC)OC` (stereo not drawn) the mutagenic call [1] was “inactive; negative”, the mutagenic call [2] was “inactive; negative” and the mutagenic call [3] was “inactive; negative”. For the same compound, the mutagenic call [4] was “inactive; negative”, the mutagenic call [5] was “inactive; negative” and the mutagenic call [6] was “inactive; negative”. The mutagenic call [7] was “active; positive”, the mutagenic call [8] was “inactive; negative” and the mutagenic call [9] was “active; positive”. The mutagenic call [10] was “active; positive”, the mutagenic call [11] was “active; positive” and the mutagenic call [12] was “active; positive”.

`CCNc1cccc(O)c1` was tested, and the mutagenic call [1] was “inactive; negative”, the mutagenic call [2] was “inactive; negative” and the mutagenic call [3] was “inactive; negative”. The mutagenic call [4] was “active; positive”, the mutagenic call [5] was “inactive; negative” and the mutagenic call [6] was “active; positive”. The mutagenic call [7] was “inactive; negative”, the mutagenic call [8] was “inactive; negative” and the mutagenic call [9] was “inactive; negative”. The mutagenic call [10] was “inactive; negative”, the mutagenic call [11] was “inactive; negative” and the mutagenic call [12] was “inactive; negative”.

`O=[N+]([O-])c1ccc2c(c1)Oc1cc([N+](=O)[O-])ccc1O2` was tested, and the mutagenic call (Test System: AMES SALMONELLA TYPHIMURIUM, Strain/Indicator: TA98(1,8-DNP6), Metabolic Activation: NONE, Method: PREINCUBATION) was “active; positive”, the mutagenic call (Test System: AMES SALMONELLA TYPHIMURIUM, Strain/Indicator: TA98(1,8-DNP6), Metabolic Activation: NONE, Method: SUSPENSION) was “active; positive” and the mutagenic call (Test System: AMES SALMONELLA TYPHIMURIUM, Strain/Indicator: TA98(1,8-DNP6), Metabolic Activation: RAT, LIVER, S-9, PCB (5%), Method: PREINCUBATION) was “active; positive”. For the same compound, the mutagenic call (Test System: AMES SALMONELLA TYPHIMURIUM, Strain/Indicator: TA98(NR), Metabolic Activation: NONE, Method: PREINCUBATION) was “inactive; negative”, the mutagenic call (Test System: AMES SALMONELLA TYPHIMURIUM, Strain/Indicator: TA98(NR), Metabolic Activation: NONE, Method: SUSPENSION) was “inactive; negative” and the mutagenic call (Test System: AMES SALMONELLA TYPHIMURIUM, Strain/Indicator: TA98(NR), Metabolic Activation: RAT, LIVER, S-9 (15%), Method: PREINCUBATION) was “active; positive”. For the same compound, the mutagenic call (Test System: AMES SALMONELLA TYPHIMURIUM, Strain/Indicator: TA98(NR), Metabolic Activation: RAT, LIVER, S-9, 3-METHYLCHOLANTHRENE (15%), Method: PREINCUBATION) was “active; positive”, the mutagenic call (Test System: AMES SALMONELLA TYPHIMURIUM, Strain/Indicator: TA98(NR), Metabolic Activation: RAT, LIVER, S-9, BETA-NAPHTHOFLAVONE (15%), Method: PREINCUBATION) was “active; positive” and the mutagenic call (Test System: AMES SALMONELLA TYPHIMURIUM, Strain/Indicator: TA98(NR), Metabolic Activation: RAT, LIVER, S-9, PCB (5 OR 15%), Method: PREINCUBATION) was “active; positive”. For the same compound, the mutagenic call (Test System: AMES SALMONELLA TYPHIMURIUM, Strain/Indicator: TA98(NR), Metabolic Activation: RAT, LIVER, S-9, PHENOBARBITAL (15%), Method: PREINCUBATION) was “active; positive”, the mutagenic call [5] was “active; positive” and the mutagenic call (Test System: AMES SALMONELLA TYPHIMURIUM, Strain/Indicator: TA98, Metabolic Activation: NONE, Method: SUSPENSION) was “active; positive”. For the same compound, the mutagenic call (Test System: AMES SALMONELLA TYPHIMURIUM, Strain/Indicator: TA98, Metabolic Activation: RAT, LIVER, S-9, PCB (5%), Method: PREINCUBATION) was “active; positive”, the mutagenic call (Test System: AMES SALMONELLA TYPHIMURIUM, Strain/Indicator: TA98, Metabolic Activation: RAT, LIVER, S-9, PCB, Method: SUSPENSION) was “active; positive” and the mutagenic call [8] was “inactive; negative”. For the same compound, the mutagenic call (Test System: AMES SALMONELLA TYPHIMURIUM, Strain/Indicator: TA100, Metabolic Activation: NONE, Method: SUSPENSION) was “inactive; negative”, the mutagenic call (Test System: AMES SALMONELLA TYPHIMURIUM, Strain/Indicator: TA100, Metabolic Activation: RAT, LIVER, S-9, PCB (5%), Method: PREINCUBATION) was “inactive; negative” and the mutagenic call (Test System: AMES SALMONELLA TYPHIMURIUM, Strain/Indicator: TA100, Metabolic Activation: RAT, LIVER, S-9, PCB, Method: SUSPENSION) was “active; positive”.

In the case of `CC(=O)N(O)c1ccc(/C=C\c2ccccc2)cc1`, the mutagenic call (Test System: UDS HUMAN FIBROBLASTS, Strain/Indicator: THY INCORP (NON-S-PHASE), Metabolic Activation: NONE, Method: AUTORADIOGRAPHY) is reported as “active; positive”.

In the case of `CCCCC(CC)COC(=O)c1cccc(C(=O)OCC(CC)CCCC)c1` (stereo not drawn), the mutagenic call (Test System: AMES SALMONELLA TYPHIMURIUM, Strain/Indicator: TA97, Metabolic Activation: HAMSTER, LIVER, S-9, AROCLOR 1254 (10 OR 30%), Method: PREINCUBATION) is reported as “inactive; negative”, the mutagenic call [2] is reported as “inactive; negative” and the mutagenic call (Test System: AMES SALMONELLA TYPHIMURIUM, Strain/Indicator: TA97, Metabolic Activation: RAT, LIVER, S-9, AROCLOR 1254 (10 OR 30%), Method: PREINCUBATION) is reported as “inactive; negative”. For the same compound, the mutagenic call (Test System: AMES SALMONELLA TYPHIMURIUM, Strain/Indicator: TA98, Metabolic Activation: HAMSTER, LIVER, S-9, AROCLOR 1254 (10 OR 30%), Method: PREINCUBATION) was “inactive; negative”, the mutagenic call [5] was “inactive; negative” and the mutagenic call (Test System: AMES SALMONELLA TYPHIMURIUM, Strain/Indicator: TA98, Metabolic Activation: RAT, LIVER, S-9, AROCLOR 1254 (10 OR 30%), Method: PREINCUBATION) was “inactive; negative”. The mutagenic call (Test System: AMES SALMONELLA TYPHIMURIUM, Strain/Indicator: TA100, Metabolic Activation: HAMSTER, LIVER, S-9, AROCLOR 1254 (10 OR 30%), Method: PREINCUBATION) was “inactive; negative”, the mutagenic call [8] was “inactive; negative” and the mutagenic call (Test System: AMES SALMONELLA TYPHIMURIUM, Strain/Indicator: TA100, Metabolic Activation: RAT, LIVER, S-9, AROCLOR 1254 (10 OR 30%), Method: PREINCUBATION) was “inactive; negative”. The mutagenic call (Test System: AMES SALMONELLA TYPHIMURIUM, Strain/Indicator: TA1535, Metabolic Activation: HAMSTER, LIVER, S-9, AROCLOR 1254 (10 OR 30%), Method: PREINCUBATION) was “inactive; negative”, the mutagenic call [11] was “inactive; negative” and the mutagenic call (Test System: AMES SALMONELLA TYPHIMURIUM, Strain/Indicator: TA1535, Metabolic Activation: RAT, LIVER, S-9, AROCLOR 1254 (10 OR 30%), Method: PREINCUBATION) was “inactive; negative”.

`CC(C)(COCC1CO1)COCC1CO1` (stereo not drawn) was tested, and the mutagenic call [7] was “active; positive”, the mutagenic call [8] was “active; positive” and the mutagenic call [9] was “active; positive”. For the same compound, the mutagenic call [10] was “active; positive”, the mutagenic call [11] was “active; positive” and the mutagenic call [12] was “active; positive”.

With `Oc1cc(Cl)cc(Cl)c1O` the mutagenic call (Test System: CHINESE HAMSTER V-79, Strain/Indicator: V-79/6-THIOGUANINE, Metabolic Activation: CELL MEDIATED, Method: STANDARD PLATE) was “inactive; negative” and the mutagenic call (Test System: CHINESE HAMSTER V-79, Strain/Indicator: V-79/6-THIOGUANINE, Metabolic Activation: NONE, Method: STANDARD PLATE) was “inactive; negative”.
